Reference: patent US7655395B2, “Isolation and use of ryanodine receptors” (E.I. du Pont de Nemours and Company, priority 2002, dated 2010)

Biological target: T1, recombinant Drosophila melanogaster ryanodine receptors (expressed in Sf9 cells) (Drosophila melanogaster, UniProt Q24498)
T1 construct: expressed in transfected cells
Type: cell-based
Settings: receptor expressed in Sf9 cells
Experimental: The Spodoptera frugiperda cell line Sf9 used for transfection studies, was maintained in Sf-900 II SFM medium (Invitrogen Life Technologies™, Carlsbad, Calif.) in T-75 flasks incubated at 27° C. It is understood that those skilled in the art might choose alternative cell types such as the Spodoptera frugiperda cell line Sf21 or the Drosophila cell line S2. For the purpose of general handling and propagation, cells were suspended through scraping or agitation and a volume of cell suspension was added to each well of a poly-L-lysine coated 96-well, glass-bottom plate so as to provide 70-80% confluence. Cells were maintained in an incubator at 27° C. until testing.
SF900-II media was used to bring the final volume in the dish to 2 ml and the cells were incubated at 27 degrees C. for 21 h. Following the incubation the media was aspirated from the dish and replaced with 1 ml of SF900-II media pre-warmed to 27 degrees C.
The transient transfection was carried out following an InsectSelect BSD System manual (Invitrogen Life Technologies™, Carlsbad, Calif.). […] The transfection was accomplished by adding the transfection solution drop-wise to the dish and incubating 4 h at room temperature with gentle rocking. […]
Several drops of a suspension of recombinant Spodoptera frugiperda cell line, Sf9, transiently expressing insect ryanodine receptors were placed on a poly-L-lysine-coated coverslip and allowed to attach. Cells were then rinsed in physiological saline having the following composition (mM): NaCl 130; KCl 5.4; MgCl2 1.2; CaCl2 1.0; NaHCO3 4.2; NaH2P04 7.3; Glucose 10; Sucrose 63; MES 20; pH 6.3. Cells were then bathed in physiological saline containing the calcium sensitive fluoroprobe, Fura-2 AM (2 μM), and Pluronic F127 (0.002%) for 30 min. Cells were rinsed in standard physiological saline for at least 15 min prior to testing. Testing was conducted in standard physiological saline, as the cell lines are devoid of functional voltage-gated calcium channels.
Cell-attached coverslips were placed in a sealed chamber with physiological saline continuously perfused across the cells using a peristaltic pump. Test compounds solubilized in physiological saline were applied by switching the perfusate source.
For studies involving the stable recombinant Spodoptera frugiperda cell line, Sf9, (other cell lines could also be used such as Sf21, S2, etc) expressing an insect ryanodine receptor from Drosophila melanogaster, or Heliothis virescens (alternatively receptors from other species such as Myzus persicae, Peregrinus maidis, Aphis gossypii, etc) were grown in T75 (or other appropriate sized) flasks in supplemented Grace's insect medium. Cells were maintained in an incubator at 22° C. until testing. Cells were suspension-loaded with the calcium sensitive fluoroprobe, Fura-2 AM (1-2 μM) and Pluronic F127 (0.002%) in culture medium for 30 minutes under agitation. Cells were then centrifuged and the pellet resuspended in physiological saline having the following composition (mM): NaCl 130; KCl 5.4; MgCl2 1.2; CaCl2 1.0; NaHCO3 4.2; NaH2P04 7.3; Glucose 10; Sucrose 63; MES 20; pH 6.3 at approximately 150,000-200,000 cells per well (96-well plate). After a 30 minute equilibration period the cell plate was tested using a Molecular Devices' FlexStation™ system with dual wavelength excitation (340 and 380 nm) and fluorescence emission measured at 510 nm. Test and control samples were added using integrated fluidics and the intracellular calcium monitored over a 2 minute period.

With CNC(=O)c1cc(Cl)cc(C)c1NC(=O)c1cc(Br)nn1-c1ncccc1Cl [Cpd 14] the “Calcium Release Threshold (nM) D. melanogaster” value was <300 nM.
